From patent publication US20240092761A1, “QUINAZOLINE COMPOUNDS AND METHODS OF USE” (IAMBIC THERAPEUTICS, INC., priority 2022, published 2024)

Tests used:
CDK6/Cyclin D3 = CDK6/Cyclin D3 (Homo sapiens (Human), UniProt Q00534); test: CDK6/Cyclin D3 ADP-Glo Kinase Assay; assay type: biochemical; settings: 100 uM ATP, read-out: CDK6/ CyclinD3 IC50
Method in brief: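 Recombinant human CDK6/Cyclin D3 pre-incubated 30 min with inhibitor at room temperature, then reaction started with ATP/substrate and run 90 min at room temperature. ADP formed detected by ADP-Glo luminescence; IC50 from a 4-parameter fit of fractional velocity versus inhibitor concentration.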

CDK1/Cyclin B1 = CDK1/Cyclin B1 (Homo sapiens (Human), UniProt P06493); test: CDK1/Cyclin B1 ADP-Glo Kinase Assay; assay type: biochemical; settings: 80 uM ATP
Sequence of CDK1/Cyclin B1 (P06493 whole entry): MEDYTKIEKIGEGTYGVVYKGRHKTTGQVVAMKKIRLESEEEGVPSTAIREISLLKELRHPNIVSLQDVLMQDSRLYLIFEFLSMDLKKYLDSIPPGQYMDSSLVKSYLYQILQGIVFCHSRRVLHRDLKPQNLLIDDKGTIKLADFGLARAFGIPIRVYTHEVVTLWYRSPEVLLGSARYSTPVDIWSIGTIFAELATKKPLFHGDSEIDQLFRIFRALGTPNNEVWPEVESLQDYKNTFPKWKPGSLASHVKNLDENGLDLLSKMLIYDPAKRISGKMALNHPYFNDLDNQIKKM
Sequence of CDK1/Cyclin B1 (P14635 whole entry partner): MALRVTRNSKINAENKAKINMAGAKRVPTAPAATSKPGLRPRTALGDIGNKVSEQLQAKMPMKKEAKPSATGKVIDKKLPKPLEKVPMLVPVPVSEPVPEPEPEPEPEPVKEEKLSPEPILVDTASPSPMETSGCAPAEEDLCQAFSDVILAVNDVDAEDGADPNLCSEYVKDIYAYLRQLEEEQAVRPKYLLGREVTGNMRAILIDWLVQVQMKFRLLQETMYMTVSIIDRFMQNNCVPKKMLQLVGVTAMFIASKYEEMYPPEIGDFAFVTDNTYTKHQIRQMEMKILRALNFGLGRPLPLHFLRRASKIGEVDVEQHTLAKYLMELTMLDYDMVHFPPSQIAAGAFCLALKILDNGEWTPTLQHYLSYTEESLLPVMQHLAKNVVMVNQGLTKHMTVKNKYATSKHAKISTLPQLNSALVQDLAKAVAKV
Method in brief: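 CDK1/cyclin B1 (4.917 nM) preincubated 30 min with inhibitor (2% DMSO), then 80 µM ATP (Km 78.6 µM) and 0.75 µM substrate added; 90 min, room temperature, pH 7.5. ADP measured by ADP-Glo luminescence; IC50 from 4-parameter fit.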

CDK4/Cyclin D1 = CDK4/Cyclin D1 (Homo sapiens (Human), UniProt P11802); test: CDK4/Cyclin D1 Mobility Shift Assay (MSA); assay type: biochemical; settings: 0.2 mM ATP, read-out: CDK4/ CyclinD1 MSA IC50
Sequence of CDK4/Cyclin D1 (P11802 whole entry): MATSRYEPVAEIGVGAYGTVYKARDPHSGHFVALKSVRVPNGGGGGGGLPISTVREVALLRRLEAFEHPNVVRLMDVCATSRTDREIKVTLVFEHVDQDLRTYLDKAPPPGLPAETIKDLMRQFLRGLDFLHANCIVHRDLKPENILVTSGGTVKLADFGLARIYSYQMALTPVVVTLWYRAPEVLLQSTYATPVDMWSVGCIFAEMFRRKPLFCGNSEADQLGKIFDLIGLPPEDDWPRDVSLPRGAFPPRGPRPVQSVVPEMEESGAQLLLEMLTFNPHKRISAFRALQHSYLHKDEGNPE
Sequence of CDK4/Cyclin D1 (P24385 whole entry partner): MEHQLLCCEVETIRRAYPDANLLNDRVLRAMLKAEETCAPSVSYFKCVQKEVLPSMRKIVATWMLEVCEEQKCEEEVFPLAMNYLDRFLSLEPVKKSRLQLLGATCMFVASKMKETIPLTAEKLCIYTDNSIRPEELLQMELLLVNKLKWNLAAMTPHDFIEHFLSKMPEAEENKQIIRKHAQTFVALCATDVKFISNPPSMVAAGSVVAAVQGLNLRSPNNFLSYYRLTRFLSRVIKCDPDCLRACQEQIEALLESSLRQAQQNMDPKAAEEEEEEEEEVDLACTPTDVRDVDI
Excerpt: CDK4/Cyclin D1 Mobility Shift Assay (MSA)
The purpose CDK4/Cyclin D1 assay is to evaluate the inhibition (% inhibition and IC50 values) in the presence of small molecule inhibitors by using a fluorescence based microfluidic mobility shift assay. CDK4/Cyclin D1 catalyzes the production of ADP from ATP that accompanies the phosphoryl transfer to the substrate peptide 5-FAM-Dyrktide (5-FAM-RRRFRPASPLRGPPK) (Perkin Elmer Peptide 34). The mobility shift assay (MSA) electrophoretically separates the fluorescently labelled peptides (substrate and phosphorylated product) following the kinase reaction. Both substrate and product are measured, and the ratio of these values is used to generate % conversion of substrate to product by the LabChip EZ Reader. Typical reaction solutions contained 2% DMSO (+/−inhibitor), 10 mM MgCl2, 1 mM EGTA, 0.05% BSA, 2 mM DTT, 0.2 mM ATP, 0.01% Brig-35, 1.5 uM 5-FAM-Dyrktide, 2.5 nM CDK4/Cyclin D1 in 50 mM HEPES buffer at pH 7.5. The reaction was initiated with the addition of substrate solution, following a 30-minute pre-incubation of enzyme and inhibitor at 22° C. in the reaction mix. The reaction was stopped after 180 minutes by the addition of 75 uL of 500 mM EDTA and measured on a Perkin Elmer EZ reader instrument. IC50 determinations were made from a plot of the fractional velocity as a function of inhibitor concentration fit to the 4 parameters IC50 equation.

[1] = biological target: CDK2/Cyclin E1 full length (Homo sapiens (Human), UniProt P24941); test: CDK2/Cyclin E1 Full Length ADP-Glo Kinase Assay; assay type: biochemical; settings: 20 uM ATP, read-out: CDK2/ CyclinE1 IC50
Method in brief: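 Full-length human CDK2/Cyclin E1 (0.328 nM) pre-incubated 30 min with inhibitor at RT, then reacted 90 min at RT with 20 uM ATP (Km 64.78 uM) and 0.75 uM substrate in pH 7.5 HEPES, 2% DMSO. ADP measured by ADP-Glo luminescence; IC50 from 4-parameter fit of fractional velocity.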

MCF-7 cells = test: Cell Growth Inhibition, MCF-7 (CellTiterGlo, 6 days); assay type: cell-based; settings: MCF-7, 6-day treatment, CellTiterGlo 2.0
Method in brief: (§1)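 MCF-7 and OVCAR-3 cells (RPMI, 10% FBS) were seeded at 500 cells/well onto compound, typically 10–10,000 nM in half-log dilutions. Growth proceeded 6 days at 37 °C, then CellTiterGlo luminescence was read. % inhibition was taken versus control, and IC50 came from a four-parameter variable-slope fit.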

OVCAR-3 cells = test: Cell Growth Inhibition, OVCAR-3 (CellTiterGlo, 6 days); assay type: cell-based; settings: OVCAR-3, 6-day treatment, CellTiterGlo 2.0
Method in brief: as §1

Sequence of CDK6/Cyclin D3 (Q00534 whole entry): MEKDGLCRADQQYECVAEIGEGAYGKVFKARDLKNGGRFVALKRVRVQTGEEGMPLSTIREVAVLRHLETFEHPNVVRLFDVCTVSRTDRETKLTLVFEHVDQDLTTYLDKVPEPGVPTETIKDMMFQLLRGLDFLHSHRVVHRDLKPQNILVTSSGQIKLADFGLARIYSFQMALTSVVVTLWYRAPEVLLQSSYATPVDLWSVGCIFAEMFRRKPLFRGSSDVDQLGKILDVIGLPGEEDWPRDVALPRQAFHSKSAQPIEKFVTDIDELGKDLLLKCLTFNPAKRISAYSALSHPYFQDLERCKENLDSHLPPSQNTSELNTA
Sequence of CDK6/Cyclin D3 (P30281 whole entry partner): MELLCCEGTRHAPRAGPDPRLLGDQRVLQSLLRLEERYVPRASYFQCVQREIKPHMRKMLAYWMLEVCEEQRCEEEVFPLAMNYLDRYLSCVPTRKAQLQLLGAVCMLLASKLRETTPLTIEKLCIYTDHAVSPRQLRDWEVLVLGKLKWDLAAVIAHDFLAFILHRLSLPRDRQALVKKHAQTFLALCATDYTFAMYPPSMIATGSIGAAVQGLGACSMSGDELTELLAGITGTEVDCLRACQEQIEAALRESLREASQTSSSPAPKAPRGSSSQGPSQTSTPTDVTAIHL

Compound	IC50 (CDK6/Cyclin D3) [nM]	IC50 (CDK1/Cyclin B1) [nM]	IC50 (CDK4/Cyclin D1) [nM]	IC50 [1] [nM]	IC50 (MCF-7 cells; Homo sapiens, MCF7, 144 h) [nM]	IC50 (OVCAR-3 cells; Homo sapiens, 144 h) [nM]	IC50 (MCF-7 cells) [nM]	IC50 (OVCAR-3 cells) [nM]
CS(=O)(=O)N1CCC(Nc2ncc3cccc(N4CCC5(CCC5(F)F)C4)c3n2)CC1 (stereo not drawn) [Example 37, 8-(1,1-difluoro-6-azaspiro[3.4]octan-6-yl)-N-(1-(methylsulfonyl)piperidin-4-yl)quinazolin-2-amine]	< 200	500 to 2000	< 200	< 200	> 2000	> 2000	–	–
CC(=O)N1CCC2(CCN(c3cccc4cnc(Nc5ccc6c(c5)CCN(C)C6)nc34)C2)C1 (stereo not drawn) [Example 38, 1-(7-(2-((2-methyl-1,2,3,4-tetrahydroisoquinolin-6-yl)amino)quinazolin-8-yl)-2,7-diazaspiro[4.4]nonan-2-yl)ethan-1-one]	200 to 500	> 2000	< 200	200 to 500	500 to 2000	500 to 2000	–	–
COCCN1CCC2(C1)CN(c1cccc3cnc(NC4CCN(S(C)(=O)=O)CC4)nc13)C2 [Example 39, 8-(6-(2-methoxyethyl)-2,6-diazaspiro[3.4]octan-2-yl)-N-(1-(methylsulfonyl)piperidin-4-yl)quinazolin-2-amine]	500 to 2000	500 to 2000	< 200	< 200	> 2000	> 2000	–	–
CN1CCC2(C1)CN(c1cccc3cnc(NC4CCN(S(C)(=O)=O)CC4)nc13)C2 [Example 40, 8-(6-methyl-2,6-diazaspiro[3.4]octan-2-yl)-N-(1-(methylsulfonyl)piperidin-4-yl)quinazolin-2-amine]	200 to 500	500 to 2000	200 to 500	200 to 500	> 2000	> 2000	–	–
CC(=O)N1CCC2(CCN(c3cccc4cnc(Nc5ccc(N6CC7(COC7)C6)cn5)nc34)C2)C1 (stereo not drawn) [Example 41, 1-(7-(2-((5-(2-oxa-6-azaspiro[3.3]heptan-6-yl)pyridin-2-yl)amino)quinazolin-8-yl)-2,7-diazaspiro[4.4]nonan-2-yl)ethan-1-one]	500 to 2000	> 2000	200 to 500	> 2000	> 2000	> 2000	–	–
CN1CC2(CCN(c3cccc4cnc(Nc5ccc(N6CC7(COC7)C6)cn5)nc34)C2)C1 [Example 42, N-(5-(2-oxa-6-azaspiro[3.3]heptan-6-yl)pyridin-2-yl)-8-(2-methyl-2,6-diazaspiro[3.4]octan-6-yl)quinazolin-2-amine]	200 to 500	> 2000	< 200	> 2000	200 to 500	> 2000	–	–
CC(=O)N1CCC2(CCN(c3c(F)ccc4cnc(NC5CCN(S(C)(=O)=O)CC5)nc34)C2)C1 (stereo not drawn) [Example 45, 1-(7-(7-fluoro-2-((1-(methylsulfonyl)piperidin-4-yl)amino)quinazolin-8-yl)-2,7-diazaspiro[4.4]nonan-2-yl)ethan-1-one]	< 200	500 to 2000	< 200	< 200	> 2000	> 2000	–	–
CCN1CC2(C1)CN(c1ccc(Nc3ncc4cccc(N5CCC6(CCN(C(C)=O)C6)C5)c4n3)nc1)C2 (stereo not drawn) [Example 46, 1-(7-(2-((5-(6-ethyl-2,6-diazaspiro[3.3]heptan-2-yl)pyridin-2-yl)amino)quinazolin-8-yl)-2,7-diazaspiro[4.4]nonan-2-yl)ethan-1-one]	200 to 500	> 2000	< 200	> 2000	500 to 2000	> 2000	–	–
CCN1CC2(C1)CN(c1ccc(Nc3ncc4cccc(N5CC6(CC(O)C6)C5)c4n3)nc1)C2 [Example 48, 2-(2-((5-(6-ethyl-2,6-diazaspiro[3.3]heptan-2-yl)pyridin-2-yl)amino)quinazolin-8-yl)-2-azaspiro[3.3]heptan-6-ol]	< 200	> 2000	< 200	> 2000	500 to 2000	> 2000	–	–
CC(=O)N1CCC2(CCN(c3cc(C(F)F)cc4cnc(Nc5cnn(C(C)C)c5)nc34)C2)C1 (stereo not drawn) [Example 52, 1-(7-(6-(difluoromethyl)-2-((1-isopropyl-1H-pyrazol-4-yl)amino)quinazolin-8-yl)-2,7-diazaspiro[4.4]nonan-2-yl)ethan-1-one]	500 to 2000	500 to 2000	< 200	500 to 2000	200 to 500	500 to 2000	–	–
FC(F)c1cc(N2CCC3(C2)CC3(F)F)c2nc(NC3[C@H]4CNC[C@@H]34)ncc2c1 (stereo partly drawn) [Example 53, 8-(1,1-difluoro-5-azaspiro[2.4]heptan-5-yl)-6-(difluoromethyl)-N-((1R,5S,6s)-3-azabicyclo[3.1.0]hexan-6-yl)quinazolin-2-amine]	< 200	> 2000	< 200	> 2000	–	–	500 to 2000	> 2000

Now from value to molecule:

IC50 (CDK6/Cyclin D3) [nM]	IC50 (CDK1/Cyclin B1) [nM]	IC50 (CDK4/Cyclin D1) [nM]	IC50 [1] [nM]	IC50 (MCF-7 cells; Homo sapiens, MCF7, 144 h) [nM]	IC50 (OVCAR-3 cells; Homo sapiens, 144 h) [nM]	IC50 (MCF-7 cells) [nM]	IC50 (OVCAR-3 cells) [nM]	Compound
500 to 2000	500 to 2000	< 200	< 200	> 2000	> 2000	–	–	COCCN1CC2(C1)CN(c1cccc3cnc(NC4CCN(S(C)(=O)=O)CC4)nc13)C2 [Example 36, 8-(6-(2-methoxyethyl)-2,6-diazaspiro[3.3]heptan-2-yl)-N-(1-(methylsulfonyl)piperidin-4-yl)quinazolin-2-amine]
500 to 2000	> 2000	200 to 500	> 2000	500 to 2000	> 2000	–	–	COCCN1CC2(CCN(c3cccc4cnc(Nc5ccc(N6CC7(COC7)C6)cn5)nc34)C2)C1 [Example 43, N-(5-(2-oxa-6-azaspiro[3.3]heptan-6-yl)pyridin-2-yl)-8-(2-(2-methoxyethyl)-2,6-diazaspiro[3.4]octan-6-yl)quinazolin-2-amine]
200 to 500	> 2000	200 to 500	> 2000	> 2000	> 2000	–	–	CC(=O)N1CCC2(CCN(c3cccc4cnc(Nc5ccc(N6CC7(C6)CC(F)(F)C7)cn5)nc34)C2)C1 (stereo not drawn) [Example 47, 1-(7-(2-((5-(6,6-difluoro-2-azaspiro[3.3]heptan-2-yl)pyridin-2-yl)amino)quinazolin-8-yl)-2,7-diazaspiro[4.4]nonan-2-yl)ethan-1-one]
< 200	200 to 500	< 200	< 200	500 to 2000	> 2000	–	–	CC(=O)N1CCC2(CCN(c3cc(C(F)F)cc4cnc(NC5CCN(S(C)(=O)=O)CC5)nc34)C2)C1 (stereo not drawn) [Example 50, 1-(7-(6-(difluoromethyl)-2-((1-(methylsulfonyl)piperidin-4-yl)amino)quinazolin-8-yl)-2,7-diazaspiro[4.4]nonan-2-yl)ethan-1-one]
< 200	> 2000	< 200	500 to 2000	500 to 2000	500 to 2000	–	–	CC(=O)N1CCC2(CCN(c3cc(C(F)F)cc4cnc(Nc5ccc(N6CCN(C)CC6)cc5)nc34)C2)C1 (stereo not drawn) [Example 51, 1-(7-(6-(difluoromethyl)-2-((4-(4-methylpiperazin-1-yl)phenyl)amino)quinazolin-8-yl)-2,7-diazaspiro[4.4]nonan-2-yl)ethan-1-one]
